Laboratory results reported in patent US9108963B2, “Pyrazolopyridine, pyrazolopyrazine, pyrazolopyrimidine, pyrazolothiophene and pyrazolothiazole compounds as MGLUR4 allosteric potentiators, compositions, and methods of treating neurological dysfunction” (Vanderbilt University, priority 2010, dated 2015).

Key:
[1] = target: mGluR4 (UniProt Q14833); assay: mGluR4 potentiation assay (Ca2+ or thallium flux fluorescence, agonist EC20); format: cell-based, human or rat; conditions: Table 3; read-out: mGlu4 EC50
Protocol: The disclosed compounds and compositions can be evaluated for their ability to act as a potentiator of metabotropic glutamate receptor activity, in particular mGluR4 activity, by any suitable known methodology known in the art. For example, Chinese Hamster Ovary (CHO) cells transfected with human mGluR4 or HEK cells co-transfected with rat mGluR4 and the G-protein regulated Inwardly Rectifying Potassium channel (GIRK) were plated in clear bottom assay plates for assay in a Hamamatsu FDSS Fluorometric Plate Reader. The cells were loaded with either a Ca2+-sensitive fluorescent dye or the thallium responsive dye and the plates were washed and placed into a suitable kinetic plate reader. For human mGluR4 assays, a fluorescence baseline was established for 3-5 seconds, the disclosed compounds were then added to the cells, and the response in cells was measured. Approximately two and a half minutes later, a concentration of mGluR4 orthosteric agonist (e.g. glutamate or L-AP4) eliciting approximately 20% (EC20) of the maximal agonist response was added to the cells, and the response was measured. Two minutes later, a concentration of mGluR4 agonist (e.g. glutamate or L-AP4) eliciting 80% (EC80) of the maximal agonist response was added to the cells, and the response was measured. For rat mGluR4/GIRK experiments, a baseline was established for approximately five seconds, disclosed compounds were added, and either an EC20 or EC80 concentration of agonist was added approximately two and one half minutes later.
The above described assay operated in two modes. In the first mode, a range of concentrations of the disclosed compounds are added to cells, followed by a single fixed concentration of agonist. If the compound acts as a potentiator, an EC50 value for potentiation and a maximum extent of potentiation by the compound at this concentration of agonist is determined by non-linear curve fitting. If the compound acts as a noncompetitive antagonist, an IC50 value is determined by non-linear curve fitting. In the second mode, several fixed concentrations of the disclosed compounds are added to various wells on a plate, followed by a range in concentrations of agonist for each concentration of disclosed compound. The EC50 values for the agonist at each concentration of compound are determined by non-linear curve fitting. A decrease in the EC50 value of the agonist with increasing concentrations of the sample compound (a leftward shift of the agonist concentration-response curve) is an indication of the degree of mGluR4 potentiation at a given concentration of the sample compound. A decrease in the maximal response of the agonist with increasing concentrations of the sample compounds, with or without a rightward shift in agonist potency, is an indication of the degree of noncompetitive antagonism at mGluR4. The second mode also indicates whether the sample compounds also affect the maximum response to mGluR4 to agonists.

[2] = target: T1, mGluR5 (Rattus norvegicus, UniProt P31424); assay: mGluR5 negative allosteric modulation, decrease in response to non-maximal glutamate in HEK cells; format: cell-based; conditions: Table 3; read-out: mGlu5 IC50
T1 construct: expressed in transfected cells; host or cells: human embryonic kidney (HEK) cells
Excerpt: Embodiments of the present invention are also mGluR5 negative allosteric modulators. Accordingly, in one aspect, the invention relates to compounds that are also useful as negative allosteric modulators of the metabotropic glutamate receptor subtype 5 (mGluR5). Negative allosteric modulators are non-competitive antagonists and can include a range of maximal antagonist activity from partial antagonists to inverse agonists. In one aspect, the present invention relates to compounds that allosterically modulate mGluR5 receptor activity, affecting the sensitivity of mGluR5 receptors to agonists without acting as orthosteric agonists themselves. […] The compounds of the invention can be useful in the treatment neurological and psychiatric disorders associated with glutamate dysfunction and other diseases in which metabotropic glutamate receptors are involved, as further described herein. […] In further aspect, the human embryonic kidney cells are transfected with human mGluR5. In yet a further aspect, human embryonic kidney cells are transfected with mGluR5 of a mammal.
In further aspect, the human embryonic kidney cells are transfected with human mGluR5. In yet a further aspect, human embryonic kidney cells are transfected with mGluR5 of a mammal.

T1 sequence (P31424 21-1203): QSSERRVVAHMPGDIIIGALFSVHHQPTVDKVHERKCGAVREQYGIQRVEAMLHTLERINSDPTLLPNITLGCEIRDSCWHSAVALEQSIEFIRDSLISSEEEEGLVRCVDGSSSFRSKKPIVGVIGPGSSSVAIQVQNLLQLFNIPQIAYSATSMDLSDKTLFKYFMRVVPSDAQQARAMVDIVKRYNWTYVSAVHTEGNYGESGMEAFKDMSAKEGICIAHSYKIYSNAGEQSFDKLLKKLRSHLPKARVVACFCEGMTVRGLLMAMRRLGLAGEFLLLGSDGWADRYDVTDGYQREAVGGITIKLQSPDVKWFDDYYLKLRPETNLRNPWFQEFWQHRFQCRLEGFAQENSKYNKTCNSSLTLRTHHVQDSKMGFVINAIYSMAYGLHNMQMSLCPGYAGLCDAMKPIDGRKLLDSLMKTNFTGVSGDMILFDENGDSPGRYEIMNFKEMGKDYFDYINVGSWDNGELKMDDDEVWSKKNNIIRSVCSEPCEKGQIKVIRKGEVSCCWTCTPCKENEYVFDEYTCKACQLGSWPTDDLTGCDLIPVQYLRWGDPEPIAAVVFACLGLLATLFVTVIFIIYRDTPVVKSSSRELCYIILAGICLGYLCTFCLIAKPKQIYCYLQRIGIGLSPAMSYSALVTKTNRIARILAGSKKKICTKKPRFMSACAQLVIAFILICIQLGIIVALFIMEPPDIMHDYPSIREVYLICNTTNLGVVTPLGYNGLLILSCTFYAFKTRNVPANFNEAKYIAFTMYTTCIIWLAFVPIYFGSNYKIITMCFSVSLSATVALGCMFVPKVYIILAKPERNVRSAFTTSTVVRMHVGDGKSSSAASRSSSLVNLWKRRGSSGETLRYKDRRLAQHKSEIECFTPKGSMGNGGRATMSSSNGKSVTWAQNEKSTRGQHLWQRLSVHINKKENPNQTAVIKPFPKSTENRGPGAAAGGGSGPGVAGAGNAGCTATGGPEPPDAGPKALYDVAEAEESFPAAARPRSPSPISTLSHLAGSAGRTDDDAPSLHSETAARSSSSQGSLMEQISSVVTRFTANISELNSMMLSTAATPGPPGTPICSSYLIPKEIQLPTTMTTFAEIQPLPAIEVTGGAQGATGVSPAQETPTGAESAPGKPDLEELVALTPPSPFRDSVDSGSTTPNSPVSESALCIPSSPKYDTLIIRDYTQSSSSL

Row | EC50 [1] | IC50 [2] | SMILES
1 | 30.6 nM | 100 nM | Clc1cc(Nc2n[nH]c3cccnc23)ccc1Nc1cnccn1 [Example 117, 2-chloro-N1-(pyrazin-2-yl)-N4-(1H-pyrazolo[4,3-b]pyridin-3-yl)benzene-1,4-diamine]
2 | 16.9 nM | 590 nM | Cc1ccc(Nc2ccc(Nc3n[nH]c4cccnc34)cc2Cl)nc1 [Example 119, 2-chloro-N1-(5-methylpyridin-2-yl)-N4-(1H-pyrazolo[4,3-b]pyridin-3-yl)benzene-1,4-diamine]
3 | 53.1 nM | 22 nM | Clc1cc(Nc2n[nH]c3cccnc23)ccc1Nc1cccnc1 [Example 127, 2-chloro-N4-(1H-pyrazolo[4,3-b]pyridin-3-yl)-N1-(pyridin-3-yl)benzene-1,4-diamine]
